Data reported in ChEMBL document CHEMBL1156643, “Kempopeptins A and B, serine protease inhibitors with different selectivity profiles from a marine cyanobacterium, Lyngbya sp” (J Nat Prod, 2008).

Tests used:
[1] = target: Pancreatic elastase (Sus scrofa, UniProt P08419+P00772); experiment: Inhibition of pig pancreatic elastase; type: protein assay
[2] = Inhibition of pig pancreatic trypsin; set-up: species or system Sus scrofa
[3] = Inhibition of bovine alpha chymotrypsin; set-up: species or system Bos taurus

Row | SMILES | IC50 [1] [µM] | IC50 [2] [µM] | IC50 [3] [µM]
1 | CC(=O)N1CCC[C@H]1C(=O)N[C@H](C(=O)N[C@@H]1C(=O)N[C@@H](CC(C)C)C(=O)N[C@H]2CC[C@@H](O)N(C2=O)[C@@H](Cc2ccccc2)C(=O)N(C)[C@@H](Cc2ccc(O)cc2)C(=O)N[C@@H](C(C)C)C(=O)O[C@@H]1C)[C@@H](C)O [KEMPOPEPTIN A] | 2.6 | > 67 | 0.32
2 | CCCC(=O)N[C@H](C(=O)N[C@@H]1C(=O)N[C@@H](CCCCN)C(=O)N[C@H]2CC[C@@H](O)N(C2=O)[C@@H]([C@@H](C)CC)C(=O)N(C)[C@@H](Cc2ccc(OC)c(Br)c2)C(=O)N[C@@H](C(C)C)C(=O)O[C@@H]1C)C(C)C [KEMPOPEPTIN B] | > 67 | 8.4 | > 67
3 | C/C=C1\NC(=O)[C@@H](NC(=O)[C@H](CCC(N)=O)NC(=O)CCCCC)[C@@H](C)OC(=O)[C@H](C(C)C)NC(=O)[C@H](Cc2ccc(O)cc2)N(C)C(=O)[C@H](Cc2ccccc2)N2C(=O)[C@H](CC[C@H]2O)NC1=O [LYNGBYASTATIN 7] | – | > 30 | –
4 | C/C=C1\NC(=O)[C@@H](NC(=O)[C@H](CCC(N)=O)NC(=O)CCC)[C@@H](C)OC(=O)[C@H](C(C)C)NC(=O)[C@H](Cc2ccc(O)cc2)N(C)C(=O)[C@H](Cc2ccccc2)N2C(=O)[C@H](CC[C@H]2O)NC1=O [SOMAMIDE B] | 4.2 | > 30 | 0.0095
